Measured values as given in ChEMBL document CHEMBL3297661, “1-Substituted-5-[(3,5-dinitrobenzyl)sulfanyl]-1H-tetrazoles and their isosteric analogs: A new class of selective antitubercular agents active against drug-susceptible and multidrug-resistant mycobacteria” (Eur J Med Chem, 2014).
pIC50: −log10 of the molar value. In brackets after ≈: the same amount, converted by molar mass.

Columns and labels:
Pseudomonas aeruginosa [1] = assay: Antibacterial activity against Pseudomonas aeruginosa ATCC 9027 after 48 hrs by broth microdilution method; type: functional; conditions: ATCC 9027, 48 h
Candida albicans [2] = assay: Antifungal activity against Candida albicans ATCC 44859 after 24 hrs by broth microdilution method; type: functional; conditions: ATCC 44859, 24 h
Candida albicans [3] = assay: Antifungal activity against Candida albicans ATCC 44859 after 48 hrs by broth microdilution method; type: functional; conditions: ATCC 44859, 48 h
Candida tropicalis [4] = assay: Antifungal activity against Candida tropicalis 156 after 24 hrs by broth microdilution method; type: functional; conditions: Candida tropicalis, 156, 24 h
Candida tropicalis [5] = assay: Antifungal activity against Candida tropicalis 156 after 48 hrs by broth microdilution method; type: functional; conditions: Candida tropicalis, 156, 48 h
Pichia kudriavzevii [6] = assay: Antifungal activity against Candida krusei E28 after 24 hrs by broth microdilution method; type: functional; conditions: E28, 24 h
Pichia kudriavzevii [7] = assay: Antifungal activity against Candida krusei E28 after 48 hrs by broth microdilution method; type: functional; conditions: E28, 48 h
Nakaseomyces glabratus [8] = assay: Antifungal activity against Candida glabrata 20/I after 24 hrs by broth microdilution method; type: functional
Nakaseomyces glabratus [9] = assay: Antifungal activity against Candida glabrata 20/I after 48 hrs by broth microdilution method; type: functional
Trichosporon asahii [10] = assay: Antifungal activity against Trichosporon asahii 1188 after 24 hrs by broth microdilution method; type: functional; conditions: Trichosporon asahii, 1188, 24 h
Trichosporon asahii [11] = assay: Antifungal activity against Trichosporon asahii 1188 after 48 hrs by broth microdilution method; type: functional; conditions: Trichosporon asahii, 1188, 48 h
Aspergillus fumigatus [12] = assay: Antifungal activity against Aspergillus fumigatus 231 after 24 hrs by broth microdilution method; type: functional, organism-based; conditions: Aspergillus fumigatus, 231, 24 h
Aspergillus fumigatus [13] = assay: Antifungal activity against Aspergillus fumigatus 231 after 48 hrs by broth microdilution method; type: functional, organism-based; conditions: Aspergillus fumigatus, 231, 48 h
Lichtheimia corymbifera [14] = assay: Antifungal activity against Absidia corymbifera 272 after 24 hrs by broth microdilution method; type: functional, organism-based; conditions: Lichtheimia corymbifera, 272, 24 h
Lichtheimia corymbifera [15] = assay: Antifungal activity against Absidia corymbifera 272 after 48 hrs by broth microdilution method; type: functional, organism-based; conditions: Lichtheimia corymbifera, 272, 48 h
[16] = system: Trichophyton mentagrophytes; assay: Antifungal activity against Trichophyton mentagrophytes 445 after 72 hrs by broth microdilution method; type: functional, organism-based; conditions: Trichophyton mentagrophytes, 445, 72 h
[17] = system: Trichophyton mentagrophytes; assay: Antifungal activity against Trichophyton mentagrophytes 445 after 120 hrs by broth microdilution method; type: functional, organism-based; conditions: Trichophyton mentagrophytes, 445, 120 h
[18] = Cytotoxicity against human HeLa cells assessed as cell viability at 30 uM after 48 hrs by MTT assay; type: cell-based; conditions: read-out: Activity
[19] = Cytotoxicity against human HuH7 cells assessed as cell viability at 30 uM after 48 hrs by MTT assay; type: cell-based, Huh-7; conditions: read-out: Activity
[20] = Cytotoxicity against human HepG2 cells assessed as cell viability at 30 uM after 48 hrs by MTT assay; type: cell-based; conditions: read-out: Activity
[21] = Cytotoxicity against MDCK2 cells assessed as cell viability at 30 uM after 48 hrs by MTT assay; type: cell-based, Canis lupus familiaris, MDCK-II; conditions: dog, read-out: Activity
HeLa = assay: Cytotoxicity against human HeLa cells assessed as reduction in cell viability after 48 hrs by MTT assay; type: cell-based
[22] = Cytotoxicity against human HuH7 cells assessed as reduction in cell viability after 48 hrs by MTT assay; type: cell-based; conditions: Huh-7, 48 h
[23] = Cytotoxicity against MDCK2 cells assessed as reduction in cell viability after 48 hrs by MTT assay; type: cell-based; conditions: Canis lupus familiaris, MDCK-II
HepG2 = assay: Cytotoxicity against human HepG2 cells assessed as reduction in cell viability after 48 hrs by MTT assay; type: cell-based; conditions: HepG2, 48 h
[24] = system: Mycobacterium tuberculosis; assay: Antimycobacterial activity against Mycobacterium tuberculosis CNCTC My 331/88 after 14 days by micromethod; type: functional; conditions: CNCTC My 331/88, 336 h
[25] = system: Mycobacterium tuberculosis; assay: Antimycobacterial activity against Mycobacterium tuberculosis CNCTC My 331/88 after 21 days by micromethod; type: functional; conditions: CNCTC My 331/88, 504 h
Mycobacterium avium [26] = assay: Antimycobacterial activity against Mycobacterium avium CNCTC My 330/88 after 14 days by micromethod; type: functional; conditions: CNCTC My 330/88, 336 h
Mycobacterium avium [27] = assay: Antimycobacterial activity against Mycobacterium avium CNCTC My 330/88 after 21 days by micromethod; type: functional; conditions: CNCTC My 330/88, 504 h
Mycobacterium kansasii [28] = assay: Antimycobacterial activity against Mycobacterium kansasii CNCTC My 235/80 after 7 days by micromethod; type: functional; conditions: CNCTC My 235/80, 168 h
Mycobacterium kansasii [29] = assay: Antimycobacterial activity against Mycobacterium kansasii CNCTC My 235/80 after 14 days by micromethod; type: functional; conditions: CNCTC My 235/80, 336 h
Mycobacterium kansasii [30] = assay: Antimycobacterial activity against Mycobacterium kansasii CNCTC My 235/80 after 21 days by micromethod; type: functional; conditions: CNCTC My 235/80, 504 h
Mycobacterium kansasii [31] = assay: Antimycobacterial activity against Mycobacterium kansasii 6509/96 after 7 days by micromethod; type: functional; conditions: 6509/96, 168 h
Mycobacterium kansasii [32] = assay: Antimycobacterial activity against Mycobacterium kansasii 6509/96 after 14 days by micromethod; type: functional; conditions: 6509/96, 336 h
Mycobacterium kansasii [33] = assay: Antimycobacterial activity against Mycobacterium kansasii 6509/96 after 21 days by micromethod; type: functional; conditions: 6509/96, 504 h
Staphylococcus aureus [34] = assay: Antibacterial activity against Staphylococcus aureus ATCC 6538 after 24 hrs by broth microdilution method; type: functional; conditions: ATCC 6538, 24 h
Staphylococcus aureus [35] = assay: Antibacterial activity against Staphylococcus aureus ATCC 6538 after 48 hrs by broth microdilution method; type: functional; conditions: ATCC 6538, 48 h
Staphylococcus aureus [36] = assay: Antibacterial activity against methicillin-resistant Staphylococcus aureus H 5996/08 after 24 hrs by broth microdilution method; type: functional; conditions: H 5996/08, 24 h
Staphylococcus aureus [37] = assay: Antibacterial activity against methicillin-resistant Staphylococcus aureus H 5996/08 after 48 hrs by broth microdilution method; type: functional; conditions: H 5996/08, 48 h
[38] = system: Staphylococcus epidermidis; assay: Antibacterial activity against Staphylococcus epidermidis H 6966/08 after 24 hrs by broth microdilution method; type: functional; conditions: H 6966/08, 24 h
[39] = system: Staphylococcus epidermidis; assay: Antibacterial activity against Staphylococcus epidermidis H 6966/08 after 48 hrs by broth microdilution method; type: functional; conditions: H 6966/08, 48 h
Enterococcus faecalis [40] = assay: Antibacterial activity against Enterococcus faecalis J 14365/08 after 24 hrs by broth microdilution method; type: functional; conditions: J 14365/08, 24 h
Enterococcus faecalis [41] = assay: Antibacterial activity against Enterococcus faecalis J 14365/08 after 48 hrs by broth microdilution method; type: functional; conditions: J 14365/08, 48 h
Escherichia coli [42] = assay: Antibacterial activity against Escherichia coli ATCC 8739 after 24 hrs by broth microdilution method; type: functional; conditions: ATCC 8739, ATCC 8739, 24 h
Escherichia coli [43] = assay: Antibacterial activity against Escherichia coli ATCC 8739 after 48 hrs by broth microdilution method; type: functional; conditions: ATCC 8739, ATCC 8739, 48 h
Klebsiella pneumoniae [44] = assay: Antibacterial activity against Klebsiella pneumoniae D 11750/08 after 24 hrs by broth microdilution method; type: functional; conditions: D 11750/08, 24 h
Klebsiella pneumoniae [45] = assay: Antibacterial activity against Klebsiella pneumoniae D 11750/08 after 48 hrs by broth microdilution method; type: functional; conditions: D 11750/08, 48 h
Klebsiella pneumoniae [46] = assay: Antibacterial activity against extended spectrum beta-lactamase producing Klebsiella pneumoniae J 14368/08 after 24 hrs by broth microdilution method; type: functional; conditions: J 14368/08, 24 h
Klebsiella pneumoniae [47] = assay: Antibacterial activity against extended spectrum beta-lactamase producing Klebsiella pneumoniae J 14368/08 after 48 hrs by broth microdilution method; type: functional; conditions: J 14368/08, 48 h
Pseudomonas aeruginosa [48] = assay: Antibacterial activity against Pseudomonas aeruginosa ATCC 9027 after 24 hrs by broth microdilution method; type: functional; conditions: ATCC 9027, 24 h

## O=[N+]([O-])c1cc(CSc2nnnn2Cc2ccccc2)cc([N+](=O)[O-])c1
Pseudomonas aeruginosa [1]
  IC95: > 500 µM
Candida albicans [2]
  IC80: > 500 µM
Candida albicans [3]
  IC80: > 500 µM
Candida tropicalis [4]
  IC80: > 500 µM
Candida tropicalis [5]
  IC80: > 500 µM
Pichia kudriavzevii [6]
  IC80: > 500 µM
Pichia kudriavzevii [7]
  IC80: > 500 µM
Nakaseomyces glabratus [8]
  IC80: > 500 µM
Nakaseomyces glabratus [9]
  IC80: > 500 µM
Trichosporon asahii [10]
  IC80: > 500 µM
Trichosporon asahii [11]
  IC80: > 500 µM
Aspergillus fumigatus [12]
  pIC50: < 3.30
Aspergillus fumigatus [13]
  pIC50: < 3.30
Lichtheimia corymbifera [14]
  pIC50: < 3.30
Lichtheimia corymbifera [15]
  pIC50: < 3.30
[16]
  pIC50: < 3.30
[17]
  pIC50: < 3.30
[18]
  viability at 48 h, 30 µM: 91%
[19]
  viability at 48 h, 30 µM: 112%
[20]
  viability at 48 h, 30 µM: 94%
[21]
  viability at 48 h, 30 µM: 87%
HeLa
  pIC50: < 4.52
[22]
  pIC50: < 4.52
[23]
  pIC50: < 4.52
HepG2
  pIC50: < 4.52
[24]
  MIC: 1 µM (≈ 0.372 µg/mL)
[25]
  MIC: 2 µM (≈ 0.745 µg/mL)
Mycobacterium avium [26]
  MIC: 250 µM (≈ 93.1 µg/mL)
Mycobacterium avium [27]
  MIC: 250 µM (≈ 93.1 µg/mL)
Mycobacterium kansasii [28]
  MIC: 2 µM (≈ 0.745 µg/mL)
Mycobacterium kansasii [29]
  MIC: 8 µM (≈ 2.98 µg/mL)
Mycobacterium kansasii [30]
  MIC: 8 µM (≈ 2.98 µg/mL)
Mycobacterium kansasii [31]
  MIC: 2 µM (≈ 0.745 µg/mL)
Mycobacterium kansasii [32]
  MIC: 4 µM (≈ 1.49 µg/mL)
Mycobacterium kansasii [33]
  MIC: 4 µM (≈ 1.49 µg/mL)
Staphylococcus aureus [34]
  IC95: > 500 µM
Staphylococcus aureus [35]
  IC95: > 500 µM
Staphylococcus aureus [36]
  IC95: > 500 µM
Staphylococcus aureus [37]
  IC95: > 500 µM
[38]
  IC95: > 500 µM
[39]
  IC95: > 500 µM
Enterococcus faecalis [40]
  IC95: > 500 µM
Enterococcus faecalis [41]
  IC95: > 500 µM
Escherichia coli [42]
  IC95: > 500 µM
Escherichia coli [43]
  IC95: > 500 µM
Klebsiella pneumoniae [44]
  IC95: > 500 µM
Klebsiella pneumoniae [45]
  IC95: > 500 µM
Klebsiella pneumoniae [46]
  IC95: > 500 µM
Klebsiella pneumoniae [47]
  IC95: > 500 µM
Pseudomonas aeruginosa [48]
  IC95: > 500 µM
